These are literature values, as cited in publication PMC10499419 (Clinical and Translational Science, 2023).

The series deals with healthy subjects.

Take `CN1C(=O)[C@@H](NC(=O)c2nnc(Cc3ccccc3)[nH]2)COc2ccccc21` [GSK2982772]: the “Tolerability in healthy subjects” value is “well‐tolerated”.
